# Measurements taken from PubChem BioAssay (NCI).
#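 Assay format: 96-well plates, 48-hour exposure. GI50 marks 50% less growth. Definition used: TGI = concentration required for complete inhibition of growth.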 Where a SMILES comes first, the peptide text is derived from it.
# Columns and labels:
# Experiment in all cases: NCI tumour cell line growth inhibition, 48 h
# 786-0 renal = system: 786-0 renal
# A498 renal = system: A498 renal
# A549 NSCLC = system: A549 NSCLC
# ACHN renal = system: ACHN renal
# CAKI-1 renal = system: CAKI-1 renal
# CCRF-CEM leukemia = system: CCRF-CEM leukemia
# COLO 205 colon = system: COLO 205 colon
# DLD-1 colon = system: DLD-1 colon
# DMS 114 small cell lung = system: DMS 114 small cell lung
# DMS 273 small cell lung = system: DMS 273 small cell lung
# DU-145 prostate = system: DU-145 prostate
# EKVX NSCLC = system: EKVX NSCLC
# HCC-2998 colon = system: HCC-2998 colon
# HCT-116 colon = system: HCT-116 colon
# HCT-15 colon = system: HCT-15 colon
# HL-60(TB) leukemia = system: HL-60(TB) leukemia
# HOP-18 NSCLC = system: HOP-18 NSCLC
# HOP-62 NSCLC = system: HOP-62 NSCLC
# HS 578T breast = system: HS 578T breast
# HT29 colon = system: HT29 colon
# IGROV1 ovarian = system: IGROV1 ovarian
# K-562 leukemia = system: K-562 leukemia
# KM12 colon = system: KM12 colon
# KM20L2 colon = system: KM20L2 colon
# LOX IMVI melanoma = system: LOX IMVI melanoma
# LXFL 529 NSCLC = system: LXFL 529 NSCLC
# M14 melanoma = system: M14 melanoma
# M19-MEL melanoma = system: M19-MEL melanoma
# MALME-3M melanoma = system: MALME-3M melanoma
# MCF7 breast = system: MCF7 breast
# MDA-MB-231 breast = system: MDA-MB-231 breast
# MDA-MB-435 = system: MDA-MB-435
# MDA-N = system: MDA-N
# MOLT-4 leukemia = system: MOLT-4 leukemia
smiles,measurement,setting,value
CC(C)CC(NC(=O)C(CC(C)C)NC(=O)C(Cc1cnc[nH]1)NC(=O)C(C)NC(=O)C(NC(=O)C(C)NC(=O)C(Cc1c[nH]c2ccccc12)NC(=O)C(CCC(=O)O)NC(=O)C(N)Cc1ccccc1)C(C)C)C(N)=O (stereo unspecified) (H-FEWAVAHLL-NH2; configuration not given here),GI50,786-0 renal,> 100 µM
same,TGI,786-0 renal,> 100 µM
same,GI50,A498 renal,> 100 µM
same,TGI,A498 renal,> 100 µM
same,GI50,A549 NSCLC,> 100 µM
same,TGI,A549 NSCLC,> 100 µM
same,TGI,ACHN renal,> 100 µM
same,GI50,CAKI-1 renal,> 100 µM
same,TGI,CAKI-1 renal,> 100 µM
same,GI50,CCRF-CEM leukemia,> 100 µM
same,TGI,CCRF-CEM leukemia,> 100 µM
same,GI50,COLO 205 colon,> 100 µM
same,TGI,COLO 205 colon,> 100 µM
same,TGI,DLD-1 colon,> 100 µM
same,TGI,DMS 114 small cell lung,> 100 µM
same,TGI,DMS 273 small cell lung,> 100 µM
same,TGI,DU-145 prostate,> 12.5 µM
same,GI50,EKVX NSCLC,> 100 µM
same,TGI,EKVX NSCLC,> 100 µM
same,GI50,HCC-2998 colon,> 100 µM
same,TGI,HCC-2998 colon,> 100 µM
same,GI50,HCT-116 colon,> 100 µM
same,TGI,HCT-116 colon,> 100 µM
same,GI50,HCT-15 colon,> 100 µM
same,TGI,HCT-15 colon,> 100 µM
same,GI50,HL-60(TB) leukemia,> 100 µM
same,TGI,HL-60(TB) leukemia,> 100 µM
same,TGI,HOP-18 NSCLC,> 100 µM
same,GI50,HOP-62 NSCLC,> 100 µM
same,TGI,HOP-62 NSCLC,> 100 µM
same,TGI,HS 578T breast,> 12.5 µM
same,GI50,HT29 colon,> 100 µM
same,TGI,HT29 colon,> 100 µM
same,GI50,IGROV1 ovarian,> 100 µM
same,TGI,IGROV1 ovarian,> 100 µM
same,GI50,K-562 leukemia,> 100 µM
same,TGI,K-562 leukemia,> 100 µM
same,GI50,KM12 colon,> 100 µM
same,TGI,KM12 colon,> 100 µM
same,TGI,KM20L2 colon,> 100 µM
same,TGI,LOX IMVI melanoma,> 12.5 µM
same,TGI,LXFL 529 NSCLC,> 100 µM
same,GI50,M14 melanoma,> 100 µM
same,TGI,M14 melanoma,> 100 µM
same,TGI,M19-MEL melanoma,> 100 µM
same,TGI,MALME-3M melanoma,> 12.5 µM
same,TGI,MCF7 breast,> 12.5 µM
same,TGI,MDA-MB-231 breast,> 12.5 µM
same,TGI,MDA-MB-435,> 12.5 µM
same,TGI,MDA-N,> 12.5 µM
same,GI50,MOLT-4 leukemia,> 100 µM
